# Key:
# [1] = target: T1, glucocerebrosidase (Gcase) (Homo sapiens, UniProt P04062); test: Glucocerebrosidase (Gcase) activation assay, 4-methylumbelliferyl-beta-D-glucopyranoside substrate, fluorescence endpoint; type: biochemical; details: for Percent Gcase Activation, 0.1 μM Test Compound: test compound at 0.1 μM; for Percent Gcase Activation, 1 μM Test Compound: test compound at 1.0 μM
# T1 sequence (P04062 40-536): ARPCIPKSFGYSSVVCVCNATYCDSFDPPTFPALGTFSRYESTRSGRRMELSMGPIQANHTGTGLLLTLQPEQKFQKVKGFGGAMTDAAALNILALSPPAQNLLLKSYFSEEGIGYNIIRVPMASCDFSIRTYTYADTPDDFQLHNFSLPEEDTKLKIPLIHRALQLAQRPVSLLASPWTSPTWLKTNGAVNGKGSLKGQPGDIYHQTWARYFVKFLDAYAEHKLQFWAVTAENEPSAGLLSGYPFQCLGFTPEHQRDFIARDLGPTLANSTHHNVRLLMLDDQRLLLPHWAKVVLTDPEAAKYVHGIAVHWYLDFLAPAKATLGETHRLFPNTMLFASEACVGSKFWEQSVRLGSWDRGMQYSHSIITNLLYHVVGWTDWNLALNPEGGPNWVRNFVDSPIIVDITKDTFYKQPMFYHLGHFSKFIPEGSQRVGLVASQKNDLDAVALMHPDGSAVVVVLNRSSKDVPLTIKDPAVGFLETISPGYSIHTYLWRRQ
# Procedure: The ability of exemplary compounds to activate glucocerebrosidase (Gcase) was measured.
# A 484 μL aliquot of a 1.0 mg/mL solution of phosphatidylserine (PS) (Sigma P7769) in chloroform was evaporated under a stream of nitrogen for 1 hour. The lipid film was dissolved over 4 minutes of vigorous vortexing in 40 mL of 176 mM K2HPO4/50 mM citric acid (pH 4.7) containing 7.5 μL of triton X-100, resulting in a mixed micellar preparation with a composition of 0.32 mM triton and 0.37 mol % PS. 4-Methylumbelliferyl-beta-D-glucopyranoside (ACROS-337025000) was dissolved in the micellar solution to a final concentration of 2 mM for use as the reaction substrate.
# Test compounds were diluted to the desired concentrations with dimethylsulfoxide (DMSO) from 10 mM stocks, and 0.41 μL of the DMSO compound mixture was added to 100 μL of micellar solution containing 10 nM GCase and 100 nM saposin C (Enzo ALX-201-262-C050). Pre-incubation was allowed to occur for 30 minutes at room temperature, after which the reaction was initiated by combining 25 μL of substrate solution with 25 μL of compound/GCase/saposin mixture. The reaction proceeded for 15 minutes at room temperature and was stopped by adding 150 μL of 1M glycine, pH 12.5. The endpoint of the reaction was monitored by measuring fluorescence intensity (excitation: 365 nm; emission: 440 nm) on a SpectraMax i3 instrument (Molecular Devices). Test compounds were screened at 1.0 and 0.1 μM final concentration, and subsequent 8-point dose response curves were obtained using 3-fold dilutions from a maximum final concentration of 5 μM.
# [2] = Compound solubility in water; type: physicochemical
SMILES,"Percent Gcase Activation, 0.1 μM Test Compound [1]","Percent Gcase Activation, 1 μM Test Compound [1]",solubility [2] [µg/mL]
Cc1cc(-c2cccc(F)n2)nc2c(C(=O)NC(C)C3CC3)cnn12 (stereo not drawn) [III-130],*** (greater than 20% Gcase activation),+++ (Gcase activation greater than 60%),0.2
COc1cccc(-c2cc(C)n3ncc(C(=O)NC(C4CC4)C(F)(F)F)c3n2)c1 (stereo not drawn) [III-105],*** (greater than 20% Gcase activation),+++ (Gcase activation greater than 60%),0.08
Cc1cc(-c2ccc(Cl)cn2)nc2c(C(=O)N[C@@H](C3CC3)C(F)(F)F)cnn12 [III-118],*** (greater than 20% Gcase activation),+++ (Gcase activation greater than 60%),0.4
